Assay results from PubChem BioAssay AID1963864 (Molecular Pharmacology Branch, DTP, NCI, 2024).
pIC50: −log10 of the molar value.

Tested on: KRAS PDC multicell spheroid viability
Assay: Anticancer human tumor 521955-158-R6-J3-PDC patient-derived pancreatic carcinoma cell line growth inhibition [KRAS2]
Conditions: for pIC50: curve of first compound; for viability, T/C: stronger effect = lower value
In short: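 Combination screen of spheroid viability in tumor-cell co-cultures with endothelial (HUVEC) and mesenchymal stem cell stroma. Each agent was tested in half-log dilutions, topping at clinical Cmax or at 10 microM without a known Cmax.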

[1] = second compound 0.0316 µM, first compound 0.0316 µM
[2] = second compound 0.0316 µM, first compound 0.1 µM
[3] = second compound 0.0316 µM, first compound 0.316 µM
[4] = second compound 0.0316 µM, first compound 1 µM
[5] = second compound 0.0316 µM, first compound 3.16 µM
[6] = second compound 0.1 µM, first compound 0.01 µM
[7] = second compound 0.1 µM, first compound 0.0316 µM
[8] = second compound 0.1 µM, first compound 0.1 µM
[9] = second compound 0.1 µM, first compound 0.316 µM
[10] = second compound 0.1 µM, first compound 1 µM
[11] = second compound 0.1 µM, first compound 3.16 µM
[12] = second compound 0.316 µM, first compound 0.01 µM
[13] = second compound 0.316 µM, first compound 0.0316 µM
[14] = second compound 0.316 µM, first compound 0.1 µM
[15] = second compound 0.316 µM, first compound 0.316 µM
[16] = second compound 0.316 µM, first compound 1 µM
[17] = second compound 0.316 µM, first compound 3.16 µM
[18] = second compound 1 µM, first compound 0.01 µM
[19] = second compound 1 µM, first compound 0.0316 µM
[20] = second compound 1 µM, first compound 0.1 µM
[21] = second compound 1 µM, first compound 0.316 µM
[22] = second compound 1 µM, first compound 1 µM
[23] = second compound 1 µM, first compound 3.16 µM
[24] = second compound 3.16 µM, first compound 0.01 µM
[25] = second compound 3.16 µM, first compound 0.0316 µM
[26] = second compound 3.16 µM, first compound 0.1 µM
[27] = second compound 3.16 µM, first compound 0.316 µM
[28] = second compound 3.16 µM, first compound 1 µM
[29] = second compound 3.16 µM, first compound 3.16 µM
[30] = second compound 10 µM, first compound 0.01 µM
[31] = second compound 10 µM, first compound 0.0316 µM
[32] = second compound 10 µM, first compound 0.1 µM
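Also: drug exposure lasted seven days.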
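For viability, T/C in this document: 100% = DMSO vehicle wells and lower means fewer viable cells.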

With `CC1COCCN1c1cc(-c2ccnn2C)c2ccnc(-c3ccn[nH]3)c2n1` (stereo not given) + C=CC(=O)N1CCN(c2nc(OCC3CCCN3C)nc3c2CCN(c2cccc4cccc(C)c24)C3)CC1CC#N the pIC50 (second compound 0.0316 µM) was < 5.50, the pIC50 (second compound 0.1 µM) was < 5.50 and the pIC50 (second compound 0.316 µM) was < 5.50. The pIC50 (second compound 1 µM) was < 5.50, the pIC50 (second compound 3.16 µM) was 7.92 and the viability, T/C (second compound 0.0316 µM, first compound 0.01 µM) was 88%. It also gave a viability, T/C [1] of 90.2%, a viability, T/C [2] of 89.7% and a viability, T/C [3] of 79.8%. For the same molecule, the viability, T/C [4] was 78.8%, the viability, T/C [5] was 92.9% and the viability, T/C [6] was 92.6%. The viability, T/C [7] was 95.3%, the viability, T/C [8] was 77% and the viability, T/C [9] was 71.4%. For the same molecule, the viability, T/C [10] was 75%, the viability, T/C [11] was 94.5% and the viability, T/C [12] was 89.5%. For the same molecule, the viability, T/C [13] was 85.1%, the viability, T/C [14] was 73.1% and the viability, T/C [15] was 74.7%. It also gave a viability, T/C [16] of 73.6%, a viability, T/C [17] of 76.8% and a viability, T/C [18] of 71.7%. It also gave a viability, T/C [19] of 79%, a viability, T/C [20] of 68% and a viability, T/C [21] of 69.4%. The viability, T/C [22] was 59.9%, the viability, T/C [23] was 71.7% and the viability, T/C [24] was 52.2%. The viability, T/C [25] was 39.7%, the viability, T/C [26] was 31.9% and the viability, T/C [27] was 36.5%. For the same molecule, the viability, T/C [28] was 27.6% and the viability, T/C [29] was 45.8%.
For `CC1OCC2(CCN(c3cnc(Sc4ccnc(N)c4Cl)c(N)n3)CC2)C1N` (stereo not given) + C=CC(=O)N1CCN(c2nc(OCC3CCCN3C)nc3c2CCN(c2cccc4cccc(C)c24)C3)CC1CC#N, the pIC50 (second compound 0.0316 µM) was < 5.00, the pIC50 (second compound 0.1 µM) was < 5.00 and the pIC50 (second compound 0.316 µM) was < 5.00. For the same molecule, the pIC50 (second compound 1 µM) was < 5.00, the pIC50 (second compound 3.16 µM) was > 7.50 and the viability, T/C [1] was 88.4%. It also gave a viability, T/C [2] of 103%, a viability, T/C [3] of 92.2% and a viability, T/C [4] of 96%. It also gave a viability, T/C [5] of 114%, a viability, T/C (second compound 0.0316 µM, first compound 10 µM) of 109% and a viability, T/C [7] of 92.7%. The viability, T/C [8] was 97.4%, the viability, T/C [9] was 84.2% and the viability, T/C [10] was 86.1%. For the same molecule, the viability, T/C [11] was 114%, the viability, T/C (second compound 0.1 µM, first compound 10 µM) was 114% and the viability, T/C [13] was 87.5%. For the same molecule, the viability, T/C [14] was 86.1%, the viability, T/C [15] was 85% and the viability, T/C [16] was 90.4%. It also gave a viability, T/C [17] of 101%, a viability, T/C (second compound 0.316 µM, first compound 10 µM) of 106% and a viability, T/C [19] of 75.7%. It also gave a viability, T/C [20] of 68.7%, a viability, T/C [21] of 64.9% and a viability, T/C [22] of 67.4%. The viability, T/C [23] was 90.2%, the viability, T/C (second compound 1 µM, first compound 10 µM) was 113% and the viability, T/C [25] was 40.8%. For the same molecule, the viability, T/C [26] was 32.3%, the viability, T/C [27] was 25.2% and the viability, T/C [28] was 37.3%. The viability, T/C [29] was 28.9% and the viability, T/C (second compound 3.16 µM, first compound 10 µM) was 23.7%.
With `CC(=O)OC12COC1CC(O)C1(C)C(=O)C(O)C3=C(C)C(OC(=O)C(O)C(NC(=O)OC(C)(C)C)c4ccccc4)CC(O)(C(OC(=O)c4ccccc4)C21)C3(C)C` (stereo not given) + CC1OCC2(CCN(c3cnc(Sc4ccnc(N)c4Cl)c(N)n3)CC2)C1N the pIC50 (second compound 0.1 µM) was < 5.50, the pIC50 (second compound 0.316 µM) was < 5.50 and the pIC50 (second compound 1 µM) was < 5.50. For the same molecule, the pIC50 (second compound 3.16 µM) was < 5.50, the pIC50 (second compound 10 µM) was < 5.50 and the viability, T/C [6] was 82.9%. The viability, T/C [7] was 65.4%, the viability, T/C [8] was 74.1% and the viability, T/C [9] was 76.1%. For the same molecule, the viability, T/C [10] was 95.5%, the viability, T/C [11] was 114% and the viability, T/C [12] was 83%. For the same molecule, the viability, T/C [13] was 84.2%, the viability, T/C [14] was 72.5% and the viability, T/C [15] was 74.9%. The viability, T/C [16] was 87.8%, the viability, T/C [17] was 108% and the viability, T/C [18] was 79.8%. The viability, T/C [19] was 83.4%, the viability, T/C [20] was 69.7% and the viability, T/C [21] was 78.6%. For the same molecule, the viability, T/C [22] was 96.7%, the viability, T/C [23] was 114% and the viability, T/C [24] was 88.7%. The viability, T/C [25] was 86.6%, the viability, T/C [26] was 87.3% and the viability, T/C [27] was 94.4%. The viability, T/C [28] was 106%, the viability, T/C [29] was 109% and the viability, T/C [30] was 99.7%. The viability, T/C [31] was 88.9%, the viability, T/C [32] was 95% and the viability, T/C (second compound 10 µM, first compound 0.316 µM) was 99%. The viability, T/C (second compound 10 µM, first compound 1 µM) was 96.1% and the viability, T/C (second compound 10 µM, first compound 3.16 µM) was 118%.
For `CN(C)C/C=C/C(=O)Nc1cc2c(Nc3ccc(F)c(Cl)c3)ncnc2cc1O[C@H]1CCOC1` + CC1OCC2(CCN(c3cnc(Sc4ccnc(N)c4Cl)c(N)n3)CC2)C1N, the pIC50 (second compound 0.1 µM) was < 7.00, the pIC50 (second compound 0.316 µM) was 7.29 and the pIC50 (second compound 1 µM) was 7.06. The pIC50 (second compound 3.16 µM) was 7.61, the pIC50 (second compound 10 µM) was < 7.00 and the viability, T/C (second compound 0.1 µM, first compound 0.000316 µM) was 99.4%. The viability, T/C (second compound 0.1 µM, first compound 0.001 µM) was 84.2%, the viability, T/C (second compound 0.1 µM, first compound 0.00316 µM) was 76.7% and the viability, T/C [6] was 55.3%. The viability, T/C [7] was 62.1%, the viability, T/C [8] was 54.8% and the viability, T/C (second compound 0.316 µM, first compound 0.000316 µM) was 99%. The viability, T/C (second compound 0.316 µM, first compound 0.001 µM) was 84.7%, the viability, T/C (second compound 0.316 µM, first compound 0.00316 µM) was 69.8% and the viability, T/C [12] was 52.9%. The viability, T/C [13] was 53%, the viability, T/C [14] was 48.3% and the viability, T/C (second compound 1 µM, first compound 0.000316 µM) was 105%. The viability, T/C (second compound 1 µM, first compound 0.001 µM) was 86.4%, the viability, T/C (second compound 1 µM, first compound 0.00316 µM) was 87.4% and the viability, T/C [18] was 64.9%. The viability, T/C [19] was 69.8%, the viability, T/C [20] was 44.7% and the viability, T/C (second compound 3.16 µM, first compound 0.000316 µM) was 124%. For the same molecule, the viability, T/C (second compound 3.16 µM, first compound 0.001 µM) was 117%, the viability, T/C (second compound 3.16 µM, first compound 0.00316 µM) was 89.7% and the viability, T/C [24] was 124%. For the same molecule, the viability, T/C [25] was 28.3%, the viability, T/C [26] was 34.8% and the viability, T/C (second compound 10 µM, first compound 0.000316 µM) was 110%. The viability, T/C (second compound 10 µM, first compound 0.001 µM) was 101%, the viability, T/C (second compound 10 µM, first compound 0.00316 µM) was 71.8% and the viability, T/C [30] was 60.9%. For the same molecule, the viability, T/C [31] was 50.1% and the viability, T/C [32] was 49.2%.
